Test [1] concerns the target T1, recombinant human amylin 3 receptor (hAMYR3) (Homo sapiens, UniProt O60896+P30988).
T1 construct: host or cells: human astrocytoma cell line 1321N1
T1 sequence (P30988 25-474): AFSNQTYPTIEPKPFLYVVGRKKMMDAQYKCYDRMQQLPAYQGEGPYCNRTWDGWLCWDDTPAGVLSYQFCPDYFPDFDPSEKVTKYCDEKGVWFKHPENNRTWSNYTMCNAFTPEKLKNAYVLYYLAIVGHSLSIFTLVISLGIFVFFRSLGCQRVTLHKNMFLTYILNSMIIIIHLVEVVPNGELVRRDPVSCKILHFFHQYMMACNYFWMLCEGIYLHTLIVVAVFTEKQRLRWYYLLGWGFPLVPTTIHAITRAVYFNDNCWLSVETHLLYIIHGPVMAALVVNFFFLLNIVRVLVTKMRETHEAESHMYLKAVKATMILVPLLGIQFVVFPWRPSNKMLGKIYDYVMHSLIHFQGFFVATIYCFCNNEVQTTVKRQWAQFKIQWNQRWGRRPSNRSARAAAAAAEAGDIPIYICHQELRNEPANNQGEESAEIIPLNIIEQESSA
T1 sequence (O60896 24-148 partner): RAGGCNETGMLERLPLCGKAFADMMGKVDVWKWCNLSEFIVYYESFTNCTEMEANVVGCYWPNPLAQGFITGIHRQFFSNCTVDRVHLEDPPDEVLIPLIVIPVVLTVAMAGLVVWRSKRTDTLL
As to the kind of experiment: hAMYR3 cAMP assay (AlphaScreen) in 1321N1 cells. The format is cell-based. To be noted: cAMP formation, 45 min stimulation. From the text:
(§1) For the assessment of the in vitro activity of test peptides, cell lines expressing recombinant human calcitonin receptor (hCT-R) or recombinant human amylin 3 receptor (hAMYR3) in the background of the human astrocytoma cell line 1321N1 were purchased from DiscoveRx Corporation (Cat. No. 95-016106 and 95-0166C6). The hAMYR3 is a hetero-oligomer of the calcitonin receptor (Isoform 2; Gene ID 799) and RAMPS (Gene ID 10268) that forms when both genes are expressed in the same cell. The hCT-R cell line expresses only the recombinant human calcitonin receptor gene (Isoform 2; Gene ID 799). Upon activation of hCT-R or hAMYR3 by the test peptides the formation of cAMP is induced and was measured using the AlphaScreen® cAMP Assay kit from Perkin-Elmer (Cat. No. 6760635R).
(§2) Briefly, 1321N1 cells expressing hCT-R or hAMYR3 were seeded in 384-well microtiter plates (Falcon Optilux White, Cat.-No. 10448642) at 5,000 cells in […] growth medium per well (AssayComplete 1321N1 Cell Culture Kit, DiscoveRx Corp.), and incubated for 24 h at 37° C., 5% CO2. On the day of analysis growth medium was removed and the cells were stimulated by adding 10 μL of stimulation buffer (10 […], 0.1% BSA) containing increasing concentrations of test peptides, and incubation for 45 min at room temperature. The stimulation was stopped by adding 5.6 μL/well donor bead detection mix (5 mM Hepes pH7.4, 0.5% TWEEN 20, 0.1% BSA, 0.05 mg/mL donor beads, 62.5 nM biotinylated cAMP) and 4.5 μL/well acceptor bead solution (5 mM Hepes pH7.4, 0.5% TWEEN 20, 0.1% BSA, 0.05 mg/mL acceptor beads). After thorough mixing the plates were incubated in the dark for 1 h at room temperature and the cAMP content of the resulting cell lysates was estimated according to the AlphaScreen® cAMP Assay manufacturer's instructions. EC50 values were estimated by computer-aided curve fitting of results of at least 7 different compound concentrations.
Background: cAMP levels reflect the balance of adenylyl cyclase and phosphodiesterase activity.

In test [2] the target is T2, recombinant human calcitonin receptor (hCT-R) (Homo sapiens, UniProt P30988).
T2 construct: host or cells: human astrocytoma cell line 1321N1
T2 sequence (P30988 25-474): T1 sequence (P30988 25-474)
As to the kind of experiment: hCT-R cAMP assay (AlphaScreen) in 1321N1 cells. Format: cell-based. To be noted: cAMP formation, 45 min stimulation.
Description: as §1, §2

pEC50: −log10 of the molar value. Numbered stars: 1 amine (or outer) side, 2 acyl side, 3 side chain; on linkers, the order of the positions; unused ones are H or OH. Bridge positions count the residues as written; N and C are the ends. Square brackets hold non-standard residues; d marks the D form. Peptide text beside a SMILES is read from it. * marks the point of attachment. C20 diacid = O=C(O)CCCCCCCCCCCCCCCCCCC(=O)*; γGlu = O=C(O)[C@H](CCC(=O)[*:2])N[*:1]; Hyp = O=C(O)[C@@H]1C[C@@H](O)CN1; NMeI = CC[C@H](C)[C@H](NC)C(=O)O; Aad = N[C@@H](CCCC(=O)O)C(=O)O; Orn = NCCC[C@H](N)C(=O)O; Sar = CNCC(=O)O

With `CC[C@H](C)[C@@H](C(=O)N[C@@H](CC(C)C)C(=O)N[C@@H](CO)C(=O)N[C@@H](CO)C(=O)N[C@H](C(=O)N[C@@H](CCC(=O)O)C(=O)N[C@H](C(=O)NCC(=O)N[C@@H](CO)C(=O)N[C@@H](CC(N)=O)C(=O)N[C@H](C(=O)N1C[C@H](O)C[C@H]1C(N)=O)[C@@H](C)O)C(C)C)[C@@H](C)O)N(C)C(=O)[C@H](C)NC(=O)CN(C)C(=O)[C@H](Cc1ccccc1)NC(=O)[C@@H](NC(=O)[C@@H](NC(=O)[C@H](CCCNC(=N)N)NC(=O)[C@H](CCC(N)=O)NC(=O)[C@H](CC(C)C)NC(=O)[C@H](Cc1ccccc1)NC(=O)[C@H](CCCC(=O)O)NC(=O)[C@H](C)NC(=O)[C@H](CC(C)C)NC(=O)[C@H](CCCNC(=N)N)NC(=O)[C@H](CCC(=O)O)NC(=O)[C@@H](NC(=O)[C@H](C)NC(=O)[C@@H]1CCCNC(=O)C[C@H](NC(=O)[C@H](CCCNC(=N)N)NC(=O)CC[C@H](NC(=O)CCCCCCCCCCCCCCCCCCC(=O)O)C(=O)O)C(=O)NCC(=O)N[C@@H]([C@@H](C)O)C(=O)N[C@@H](C)C(=O)N[C@@H]([C@@H](C)O)C(=O)N1)[C@@H](C)O)[C@@H](C)O)[C@@H](C)O` [Compound 23, [19CD]-isoGlu-RD()GTAT-Orn()-ATERLA-Aad-FLQRTTF-Gly(Me)-A-Ile(Me)-LSSTEVGSNT-Hyp-NH2] ({C20 diacid-γGlu}-RDGTAT[Orn]ATERLA[Aad]FLQRTTF[Sar]A[NMeI]LSSTEVGSNT[Hyp]-NH2; lactam 2-7), the results for the negative-log EC50 (pEC50) in test [1] and in test [2] were 9.15 and 8.71, respectively.

Consider `CC[C@H](C)[C@@H](C(=O)N1CCC[C@H]1C(=O)N[C@@H](CO)C(=O)N[C@@H](CO)C(=O)N[C@H](C(=O)N[C@@H](CCC(=O)O)C(=O)N[C@H](C(=O)NCC(=O)N[C@@H](CO)C(=O)N[C@@H](CC(N)=O)C(=O)N[C@H](C(=O)N1C[C@H](O)C[C@H]1C(N)=O)[C@@H](C)O)C(C)C)[C@@H](C)O)N(C)C(=O)[C@H](C)NC(=O)CN(C)C(=O)[C@H](Cc1ccccc1)NC(=O)[C@@H](NC(=O)[C@@H](NC(=O)[C@H](CCCNC(=N)N)NC(=O)[C@H](CCC(N)=O)NC(=O)[C@H](CC(C)C)NC(=O)[C@H](Cc1ccccc1)NC(=O)[C@H](CCCC(=O)O)NC(=O)[C@H](C)NC(=O)[C@H](CC(C)C)NC(=O)[C@H](CCCNC(=N)N)NC(=O)[C@H](CCC(=O)O)NC(=O)[C@@H](NC(=O)[C@H](C)NC(=O)[C@@H]1CCCNC(=O)C[C@H](NC(=O)[C@H](CCCNC(=N)N)NC(=O)CC[C@H](NC(=O)CCCCCCCCCCCCCCCCCCC(=O)O)C(=O)O)C(=O)NCC(=O)N[C@@H]([C@@H](C)O)C(=O)N[C@@H](C)C(=O)N[C@@H]([C@@H](C)O)C(=O)N1)[C@@H](C)O)[C@@H](C)O)[C@@H](C)O` [Compound 24, [19CD]-isoGlu-RD()GTAT-Orn()-ATERLA-Aad-FLQRTTF-Gly(Me)-A-Ile(Me)-PSSTEVGSNT-Hyp-NH2] ({C20 diacid-γGlu}-RDGTAT[Orn]ATERLA[Aad]FLQRTTF[Sar]A[NMeI]PSSTEVGSNT[Hyp]-NH2; lactam 2-7), for which the pEC50 in test [1] was 10.89; in test [2], 10.42.

In the case of `CC[C@H](C)[C@@H](C(=O)N[C@@H](CC(C)C)C(=O)N[C@@H](CO)C(=O)N[C@@H](CO)C(=O)N[C@H](C(=O)N[C@@H](CCC(=O)O)C(=O)N[C@H](C(=O)NCC(=O)N[C@@H](CO)C(=O)N[C@@H](CC(N)=O)C(=O)N[C@H](C(=O)N1C[C@H](O)C[C@H]1C(N)=O)[C@@H](C)O)C(C)C)[C@@H](C)O)N(C)C(=O)[C@H](C)NC(=O)CN(C)C(=O)[C@H](Cc1ccccc1)NC(=O)[C@H](C)NC(=O)[C@H](C)NC(=O)[C@H](CCCNC(=N)N)NC(=O)[C@H](CCC(N)=O)NC(=O)[C@H](CC(C)C)NC(=O)[C@H](Cc1ccccc1)NC(=O)[C@H](CCCC(=O)O)NC(=O)[C@H](C)NC(=O)[C@H](CC(C)C)NC(=O)[C@H](CCCNC(=N)N)NC(=O)[C@H](CCC(=O)O)NC(=O)[C@@H](NC(=O)[C@H](C)NC(=O)[C@@H]1CCCNC(=O)C[C@H](NC(=O)[C@H](CCCNC(=N)N)NC(=O)CC[C@H](NC(=O)CCCCCCCCCCCCCCCCCCC(=O)O)C(=O)O)C(=O)NCC(=O)N[C@@H]([C@@H](C)O)C(=O)N[C@@H](C)C(=O)N[C@@H]([C@@H](C)O)C(=O)N1)[C@@H](C)O` [Compound 26, [19CD]-isoGlu-RD()GTAT-Orn()-ATERLA-Aad-FLQRAAF-Gly(Me)-A-Ile(Me)-LSSTEVGSNT-Hyp-NH2] ({C20 diacid-γGlu}-RDGTAT[Orn]ATERLA[Aad]FLQRAAF[Sar]A[NMeI]LSSTEVGSNT[Hyp]-NH2; lactam 2-7), the pEC50 is 9.92 in test [1] and 9.11 in test [2].

As to `CC[C@H](C)[C@@H](C(=O)N[C@@H](CC(C)C)C(=O)N[C@@H](CO)C(=O)N[C@@H](CO)C(=O)N[C@H](C(=O)N[C@@H](CCC(=O)O)C(=O)N[C@H](C(=O)NCC(=O)N[C@@H](CO)C(=O)N[C@@H](CC(N)=O)C(=O)N[C@H](C(=O)N1C[C@H](O)C[C@H]1C(N)=O)[C@@H](C)O)C(C)C)[C@@H](C)O)N(C)C(=O)[C@H](C)NC(=O)CN(C)C(=O)[C@H](Cc1ccccc1)NC(=O)[C@@H](NC(=O)CNC(=O)[C@H](CCCNC(=N)N)NC(=O)[C@H](CCC(N)=O)NC(=O)[C@H](CC(C)C)NC(=O)[C@H](Cc1ccccc1)NC(=O)[C@H](CCCC(=O)O)NC(=O)[C@H](C)NC(=O)[C@H](CC(C)C)NC(=O)[C@H](CCCNC(=N)N)NC(=O)[C@H](CCC(=O)O)NC(=O)[C@@H](NC(=O)[C@H](C)NC(=O)[C@@H]1CCCNC(=O)C[C@H](NC(=O)[C@H](CCCNC(=N)N)NC(=O)CC[C@H](NC(=O)CCCCCCCCCCCCCCCCCCC(=O)O)C(=O)O)C(=O)N[C@@H](CCC(N)=O)C(=O)N[C@@H]([C@@H](C)O)C(=O)N[C@@H](C)C(=O)N[C@@H]([C@@H](C)O)C(=O)N1)[C@@H](C)O)[C@@H](C)O` [Compound 28, [19CD]-isoGlu-RD()QTAT-Orn()-ATERLA-Aad-FLQRGTF-Gly(Me)-A-Ile(Me)-LSSTEVGSNT-Hyp-NH2] ({C20 diacid-γGlu}-RDQTAT[Orn]ATERLA[Aad]FLQRGTF[Sar]A[NMeI]LSSTEVGSNT[Hyp]-NH2; lactam 2-7), the pEC50 is 9.57 in test [1] and 8.91 in test [2].

With `CC[C@H](C)[C@@H](C(=O)N[C@@H](CC(C)C)C(=O)N[C@@H](CO)C(=O)N[C@@H](CO)C(=O)N[C@H](C(=O)N[C@@H](CCC(=O)O)C(=O)N[C@H](C(=O)NCC(=O)N[C@@H](CO)C(=O)N[C@@H](CC(N)=O)C(=O)N[C@H](C(=O)N1C[C@H](O)C[C@H]1C(N)=O)[C@@H](C)O)C(C)C)[C@@H](C)O)N(C)C(=O)[C@H](C)NC(=O)CN(C)C(=O)[C@H](Cc1ccccc1)NC(=O)[C@H](CO)NC(=O)[C@H](CO)NC(=O)[C@H](CCCNC(=N)N)NC(=O)[C@H](CCC(N)=O)NC(=O)[C@H](CC(C)C)NC(=O)[C@H](Cc1ccccc1)NC(=O)[C@H](CCCC(=O)O)NC(=O)[C@H](C)NC(=O)[C@H](CC(C)C)NC(=O)[C@H](CCCNC(=N)N)NC(=O)[C@H](CCC(=O)O)NC(=O)[C@@H](NC(=O)[C@H](C)NC(=O)[C@@H]1CCCCNC(=O)C[C@H](NC(=O)[C@H](CCCNC(=N)N)NC(=O)CC[C@H](NC(=O)CCCCCCCCCCCCCCCCCCC(=O)O)C(=O)O)C(=O)N2CCC[C@H]2C(=O)N[C@@H]([C@@H](C)O)C(=O)N[C@@H](C)C(=O)N[C@@H]([C@@H](C)O)C(=O)N1)[C@@H](C)O` [Compound 29, [19CD]-isoGlu-RD()PTATK()ATERLA-Aad-FLQRSSF-Gly(Me)-A-Ile(Me)-LSSTEVGSNT-Hyp-NH2] ({C20 diacid-γGlu}-RDPTATKATERLA[Aad]FLQRSSF[Sar]A[NMeI]LSSTEVGSNT[Hyp]-NH2; lactam 2-7), the pEC50 is 9.51 in test [1] and 8.97 in test [2].

In general, pEC50 refers to the negative decadic logarithm of the EC50, by convention in mol/L.

Values taken from patent US11382956B2, “Amylin analogues” (Zealand Pharma A/S, priority 2016, dated 2022).
